Assay results taken from US8778871B2 (Takeda Pharmaceutical Company Limited, priority 2004, dated 2014).
Non-standard residues stand in square brackets, D forms with d. Residues, ends and D or L forms follow the SMILES beside them. No end group written: not given here. *: point of attachment. Propanoyl(3-indol-3-yl) = O=C(CCc1c[nH]c2ccccc12)*; Phe(4-Cl) = N[C@@H](Cc1ccc(Cl)cc1)C(=O)O; Phe(4-NH2) = Nc1ccc(C[C@H](N)C(=O)O)cc1; 2Nal = N[C@@H](Cc1ccc2ccccc2c1)C(=O)O; Arg(Me) = CNC(=N)NCCC[C@H](N)C(=O)O; Cha = N[C@@H](CC1CCCCC1)C(=O)O; X4 = NC(=S)[C@H](Cc1ccccc1)N*; azaGly = NNC(=O)O

Columns and labels:
[1] = biological target: T1, hOT7T175 (Homo sapiens, UniProt Q969F8, L364H); assay: Intracellular Ca ion level-increasing activity using FLIPR (180 seconds; specific activity to Metastin (1-54)); format: cell-based; details: hOT7T175/CHO, relative to Metastin (1-54) = 1
T1 construct: expressed in transfected cells
T1 sequence (Q969F8 whole entry L364H): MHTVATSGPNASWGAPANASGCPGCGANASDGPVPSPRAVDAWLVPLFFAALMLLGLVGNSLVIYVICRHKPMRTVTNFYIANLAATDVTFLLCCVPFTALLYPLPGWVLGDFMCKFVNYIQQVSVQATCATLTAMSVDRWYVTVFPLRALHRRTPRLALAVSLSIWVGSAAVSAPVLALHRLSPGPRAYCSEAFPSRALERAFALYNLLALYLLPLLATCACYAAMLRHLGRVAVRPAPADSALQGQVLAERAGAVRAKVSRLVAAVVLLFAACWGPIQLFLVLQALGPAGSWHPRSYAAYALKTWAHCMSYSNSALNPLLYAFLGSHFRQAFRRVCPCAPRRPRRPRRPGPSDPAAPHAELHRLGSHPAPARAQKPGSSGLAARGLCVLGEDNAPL

[2] = biological target: T1, hOT7T175; format: cell-based; details: hOT7T175/CHO, FLIPR, evaluation for 40 seconds after initiation of the reaction
Method: The intracellular Ca ion level-increasing activity was measured using FLIPR as in TEST EXAMPLE 2.

What does the source list for `CC(C)C[C@H](NC(=O)CNC(=O)[C@H](Cc1ccccc1)NC(=O)[C@H](CO)NC(=O)[C@H](CC(N)=O)NC(=O)[C@@H](Cc1c[nH]c2ccccc12)NC(=O)[C@H](CC(N)=O)NC(=O)[C@@H](N)Cc1ccc(O)cc1)C(=O)N[C@@H](CCCNC(=N)N)C(=O)N[C@@H](Cc1ccccc1)C(N)=O` [Compound No. 40]?
Specific Act. (intracellular Ca ion level-increasing activity, specific activity to Metastin (1-54)) [1]: 30; Specific Act. (EC50/MS10 EC50) [2]: 1.6

How did the “Specific Act. (intracellular Ca ion level-increasing activity, specific activity to Metastin (1-54))” value [1] turn out when `CC(C)C[C@H](NC(=O)CNC(=O)[C@H](Cc1ccccc1)NC(=O)[C@H](CO)NC(=O)[C@H](CC(N)=O)NC(=O)[C@H](Cc1c[nH]c2ccccc12)NC(=O)[C@@H](CC(N)=O)NC(=O)[C@@H](N)Cc1ccc(O)cc1)C(=O)N[C@@H](CCCNC(=N)N)C(=O)N[C@@H](Cc1ccccc1)C(N)=O` [Compound No. 41] was run?
Its value is 10.

What about the “Specific Act. (EC50/MS10 EC50)” value [2] of the same compound?
Its value is 2.7.

What does the source list for `CC(C)C[C@H](NC(=O)CNC(=O)[C@H](Cc1ccccc1)NC(=O)[C@H](CO)NC(=O)[C@H](CC(N)=O)NC(=O)[C@H](Cc1c[nH]c2ccccc12)NC(=O)[C@H](CC(N)=O)NC(=O)[C@H](N)Cc1ccc(O)cc1)C(=O)N[C@@H](CCCNC(=N)N)C(=O)N[C@@H](Cc1ccccc1)C(N)=O` [Compound No. 42]?
Specific Act. (intracellular Ca ion level-increasing activity, specific activity to Metastin (1-54)) [1]: 30; Specific Act. (EC50/MS10 EC50) [2]: 1.6

Which “Specific Act. (intracellular Ca ion level-increasing activity, specific activity to Metastin (1-54))” value [1] does the source give for `CC(C)C[C@H](NC(=O)CNC(=O)[C@H](Cc1ccccc1)NC(=O)[C@H](CO)NC(=O)[C@H](CC(N)=O)NC(=O)[C@H](Cc1c[nH]c2ccccc12)NC(=O)[C@H](CC(N)=O)NC(=O)[C@@H](N)Cc1ccc(O)cc1)C(=O)N[C@@H](CCCCNC(=N)N)C(=O)N[C@@H](Cc1ccccc1)C(N)=O` [Compound No. 97] here?
Its value is 10.

What about the “Specific Act. (EC50/MS10 EC50)” value [2] of the same compound?
The value was 2.9.

How did the “Specific Act. (intracellular Ca ion level-increasing activity, specific activity to Metastin (1-54))” value [1] turn out when `CC(C)C[C@H](NC(=O)CNC(=O)[C@H](Cc1ccccc1)NC(=O)[C@H](CO)NC(=O)[C@H](CC(N)=O)NC(=O)CCc1c[nH]c2ccccc12)C(=O)N[C@@H](CCCNC(=N)N)C(=O)N[C@@H](Cc1ccccc1)C(N)=O` [Compound No. 114, 3-(3-Indolyl)propionyl-Asn-Ser-Phe-Gly-Leu-Arg-Phe-NH2] ({Propanoyl(3-indol-3-yl)}-NSFGLRF-NH2) was run?
The value was 3.

And the “Specific Act. (EC50/MS10 EC50)” value [2]?
The value was 4.1.

How did the “Specific Act. (intracellular Ca ion level-increasing activity, specific activity to Metastin (1-54))” value [1] turn out when `CC(C)C[C@H](NC(=O)CNC(=O)[C@H](Cc1ccccc1)NC(=O)[C@H](CO)NC(=O)[C@H](CC(N)=O)NC(=O)[C@H](Cc1c[nH]c2ccccc12)NC(=O)[C@H](CC(N)=O)NC(=O)[C@@H](N)Cc1ccc(O)cc1)C(=O)N[C@@H](CCCNC(=N)N)C(=O)N[C@@H](Cc1ccccc1)C(N)=S` [Compound No. 128] (H-YNWNSFGLR-X4) was run?
The value was 10.

What about the “Specific Act. (EC50/MS10 EC50)” value [2] of the same compound?
Its value is 0.5.

Which “Specific Act. (intracellular Ca ion level-increasing activity, specific activity to Metastin (1-54))” value [1] does the source give for `CC(C)C[C@H](NC(=O)CNC(=O)[C@H](Cc1ccccc1)NC(=O)[C@H](CO)NC(=O)[C@H](CC(N)=O)NC(=O)[C@H](Cc1c[nH]c2ccccc12)NC(=O)[C@H](CC(N)=O)NC(=O)[C@H](N)Cc1ccc(O)cc1)C(=O)N[C@@H](CCCNC(=N)N)C(=O)N[C@@H](Cc1ccccc1)C(N)=S` [Compound No. 146] (H-[dY]NWNSFGLR-X4) here?
Its value is 10.

What about the “Specific Act. (EC50/MS10 EC50)” value [2] of the same compound?
The value was 1.5.

With `CC(C)C[C@H](NC(=O)CNC(=O)[C@H](Cc1ccc2ccccc2c1)NC(=O)[C@H](CO)NC(=O)[C@H](CC(N)=O)NC(=O)[C@H](Cc1c[nH]c2ccccc12)NC(=O)[C@H](CC(N)=O)NC(=O)[C@@H](N)Cc1ccc(O)cc1)C(=O)N[C@@H](CCCNC(=N)N)C(=O)N[C@@H](Cc1ccccc1)C(N)=O` [Compound No. 152, Tyr-Asn-Trp-Asn-Ser-Nal(2)-Gly-Leu-Arg-Phe-NH2] (H-YNWNS[2Nal]GLRF-NH2) as the compound, how does the “Specific Act. (intracellular Ca ion level-increasing activity, specific activity to Metastin (1-54))” value [1] read?
The value was 5.

And the “Specific Act. (EC50/MS10 EC50)” value [2]?
The value was 1.4.

With `CC(C)C[C@H](NC(=O)CNC(=O)[C@H](CC1CCCCC1)NC(=O)[C@H](CO)NC(=O)[C@H](CC(N)=O)NC(=O)[C@H](Cc1c[nH]c2ccccc12)NC(=O)[C@H](CC(N)=O)NC(=O)[C@@H](N)Cc1ccc(O)cc1)C(=O)N[C@@H](CCCNC(=N)N)C(=O)N[C@@H](Cc1ccccc1)C(N)=O` [Compound No. 156, Tyr-Asn-Trp-Asn-Ser-Cha-Gly-Leu-Arg-Phe-NH2] (H-YNWNS[Cha]GLRF-NH2) as the compound, how does the “Specific Act. (intracellular Ca ion level-increasing activity, specific activity to Metastin (1-54))” value [1] read?
Its value is 2.

And the “Specific Act. (EC50/MS10 EC50)” value [2]?
Its value is 0.9.

How did the “Specific Act. (intracellular Ca ion level-increasing activity, specific activity to Metastin (1-54))” value [1] turn out when `CNC(=N)NCCC[C@H](NC(=O)[C@H](CC(C)C)NC(=O)NNC(=O)[C@H](Cc1ccccc1)NC(=O)[C@H](CO)NC(=O)[C@H](CC(N)=O)NC(=O)[C@H](Cc1ccc(Cl)cc1)NC(=O)[C@H](CC(N)=O)NC(=O)[C@H](N)Cc1ccc(O)cc1)C(=O)N[C@@H](Cc1ccccc1)C(N)=O` [Compound No. 249, D-Tyr-Asn-Phe(4Cl)-Asn-Ser-Phe-AzaGly-Leu-Arg(Me)-Phe-NH2] (H-[dY]N[Phe(4-Cl)]NSF[azaGly]L[Arg(Me)]F-NH2) was run?
The value was 1.

Which “Specific Act. (intracellular Ca ion level-increasing activity, specific activity to Metastin (1-54))” value [1] does the source give for `CNC(=N)NCCC[C@H](NC(=O)[C@H](CC(C)C)NC(=O)NNC(=O)[C@H](Cc1ccccc1)NC(=O)[C@H](CO)NC(=O)[C@H](CC(N)=O)NC(=O)[C@H](Cc1ccc(N)cc1)NC(=O)[C@H](CC(N)=O)NC(=O)[C@H](N)Cc1ccc(O)cc1)C(=O)N[C@@H](Cc1ccccc1)C(N)=O` [Compound No. 250, D-Tyr-Asn-Phe(4NH2)-Asn-Ser-Phe-AzaGly-Leu-Arg(Me)-Phe-NH2] (H-[dY]N[Phe(4-NH2)]NSF[azaGly]L[Arg(Me)]F-NH2) here?
The value was 1.

For `CNC(=N)NCCC[C@H](NC(=O)[C@H](CC(C)C)NC(=O)NNC(=O)[C@H](Cc1ccccc1)NC(=O)[C@H](CO)NC(=O)[C@H](CC(N)=O)NC(=O)[C@H](Cc1ccccc1)NC(=O)[C@H](N)Cc1ccc(O)cc1)C(=O)N[C@@H](Cc1ccccc1)C(N)=O` [Compound No. 254, D-Tyr-Phe-Asn-Ser-Phe-AzaGly-Leu-Arg(Me)-Phe-NH2] (H-[dY]FNSF[azaGly]L[Arg(Me)]F-NH2), which “Specific Act. (intracellular Ca ion level-increasing activity, specific activity to Metastin (1-54))” value [1] is on record?
The value was 1.

`CNC(=N)NCCC[C@H](NC(=O)[C@H](CC(C)C)NC(=O)NNC(=O)[C@H](Cc1ccccc1)NC(=O)[C@H](CO)NC(=O)[C@H](CC(N)=O)NC(=O)[C@H](Cc1ccc2ccccc2c1)NC(=O)[C@H](N)Cc1ccc(O)cc1)C(=O)N[C@@H](Cc1ccccc1)C(N)=O` [Compound No. 255, D-Tyr-Nal(2)-Asn-Ser-Phe-AzaGly-Leu-Arg(Me)-Phe-NH2] (H-[dY][2Nal]NSF[azaGly]L[Arg(Me)]F-NH2) was tested. Which “Specific Act. (intracellular Ca ion level-increasing activity, specific activity to Metastin (1-54))” value [1] did it give?
Its value is 1.

“D-Tyr-Asn-Trp-Gln-Ser-Phe-Gly-Leu-Arg(Me)-Phe-NH2 ([dY]NWQSFGL[Arg(Me)]F-NH2) [Compound No. 209]” was tested. Which “Specific Act. (intracellular Ca ion level-increasing activity, specific activity to Metastin (1-54))” value [1] did it give?
The value was “½”.

“D-Tyr-Asn-Trp-Ser-Ser-Phe-Gly-Leu-Arg(Me)-Phe-NH2 ([dY]NWSSFGL[Arg(Me)]F-NH2) [Compound No. 207]” was tested. Which “Specific Act. (intracellular Ca ion level-increasing activity, specific activity to Metastin (1-54))” value [1] did it give?
The value was “½”.

For H-DNWNSFGLRF-NH2 [Compound No. 75], which “Specific Act. (intracellular Ca ion level-increasing activity, specific activity to Metastin (1-54))” value [1] is on record?
The value was 1.

With H-YNWNLFGLRF-NH2 [Compound No. 24] as the compound, how does the “Specific Act. (intracellular Ca ion level-increasing activity, specific activity to Metastin (1-54))” value [1] read?
The value was 1.

For H-YNWNSFALRF-NH2 [Compound No. 50], which “Specific Act. (intracellular Ca ion level-increasing activity, specific activity to Metastin (1-54))” value [1] is on record?
Its value is 30.

With H-YNWNSFSLRF-NH2 [Compound No. 101] as the compound, how does the “Specific Act. (intracellular Ca ion level-increasing activity, specific activity to Metastin (1-54))” value [1] read?
The value was 10.
